{"source": "patent US20240254119A1", "about": "(THIRD HARMONIC BIO, INC., priority 2022, published 2024)", "target": "T1, MDR1 (Homo sapiens, UniProt P08183)", "T1 construct": "host or cells: MDCKII (canine kidney) cells", "T1 sequence (P08183 whole entry)": "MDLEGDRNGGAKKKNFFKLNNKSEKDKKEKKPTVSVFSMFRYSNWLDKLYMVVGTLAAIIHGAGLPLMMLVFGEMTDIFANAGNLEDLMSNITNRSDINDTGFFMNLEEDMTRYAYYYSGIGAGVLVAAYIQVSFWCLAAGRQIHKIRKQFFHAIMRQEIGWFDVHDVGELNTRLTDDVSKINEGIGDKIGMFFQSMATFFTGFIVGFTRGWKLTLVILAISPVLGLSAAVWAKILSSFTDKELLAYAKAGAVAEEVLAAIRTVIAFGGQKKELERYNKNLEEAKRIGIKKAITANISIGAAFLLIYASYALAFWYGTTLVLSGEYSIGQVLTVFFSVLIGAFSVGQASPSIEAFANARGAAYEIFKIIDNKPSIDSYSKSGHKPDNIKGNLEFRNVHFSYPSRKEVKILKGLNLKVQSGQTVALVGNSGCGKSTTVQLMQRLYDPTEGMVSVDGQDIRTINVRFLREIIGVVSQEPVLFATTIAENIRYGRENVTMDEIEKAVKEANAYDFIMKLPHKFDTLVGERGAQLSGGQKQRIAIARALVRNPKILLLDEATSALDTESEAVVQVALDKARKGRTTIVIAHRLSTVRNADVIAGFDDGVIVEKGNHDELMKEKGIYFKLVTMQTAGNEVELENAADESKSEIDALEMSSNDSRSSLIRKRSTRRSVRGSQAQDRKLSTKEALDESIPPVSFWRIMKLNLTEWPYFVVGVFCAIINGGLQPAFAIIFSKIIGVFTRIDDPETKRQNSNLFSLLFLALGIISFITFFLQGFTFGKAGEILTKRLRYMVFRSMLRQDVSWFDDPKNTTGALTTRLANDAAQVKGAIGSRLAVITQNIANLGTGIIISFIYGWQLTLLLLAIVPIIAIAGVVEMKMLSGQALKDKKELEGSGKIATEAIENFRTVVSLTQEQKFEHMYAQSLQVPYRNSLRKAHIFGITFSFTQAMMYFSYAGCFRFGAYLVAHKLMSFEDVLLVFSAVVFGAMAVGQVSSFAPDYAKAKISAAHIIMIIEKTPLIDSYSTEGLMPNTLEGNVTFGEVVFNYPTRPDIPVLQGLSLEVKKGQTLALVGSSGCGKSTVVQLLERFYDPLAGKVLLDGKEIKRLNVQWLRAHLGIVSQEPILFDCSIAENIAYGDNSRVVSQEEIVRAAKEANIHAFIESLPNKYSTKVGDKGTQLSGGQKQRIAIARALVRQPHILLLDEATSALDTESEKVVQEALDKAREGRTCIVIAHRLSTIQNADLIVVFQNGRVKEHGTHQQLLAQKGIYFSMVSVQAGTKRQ", "test": "Permeability in MDR1-MDCKII cells", "format": "in vitro ADME", "settings": "dog, MDCK-MDR1, pH 7.4", "description": "Exemplary compounds were tested for cell permeability in Caco-2, MDCKII-MDR1 and MDCKII-BCRP cell lines with efflux transporter engagement inferred from the efflux ratios determined. Procedures and results are described below. […] This feature of certain compounds is in part due to efflux transporter engagement. See, for instance, exemplary such compounds included in data tables below.\nMDR1-MDCKII cells (obtained from Piet Borst at the Netherlands Cancer Institute) were seeded onto […] membranes (PET) in 96-well insert systems at 2.5×10^5 cells/mL until to 4-7 days for confluent cell monolayer formation.\nTest compounds were diluted with the transport buffer (HBSS with 10 mM Hepes, pH7.4) from DMSO stock solution to a concentration of 2.00 μM (DMSO<1%) and applied to the apical or basolateral side of the cell monolayer. Permeation of the test compounds from A to B direction or B to A direction was determined in duplicate. Digoxin was tested at 10.0 μM from A to B direction or B to A direction as well, while nadolol and metoprolol were tested at […] in A to B direction in duplicate. The plate was incubated for 2.5 hours in CO2 incubator at 37±1° C., with 5% CO2 at saturated humidity without shaking. In addition, the efflux ratio of each compound was also determined. Test and reference compounds were quantified by LC-MS/MS analysis based on the peak area ratio of analyte/IS.\nAfter transport assay, Lucifer yellow rejection assay are applied to determine the cell monolayer integrity. Buffers are removed from both apical and basolateral chambers, followed by the addition of 75 μL of 100 μM lucifer yellow in transport buffer and 250 μL transport buffer in apical and basolateral chambers, respectively. The plate is incubated for 30 minutes at 37° C. with 5% CO2 and saturated humidity without shaking. After 30 minutes incubation, 20 μL of lucifer yellow samples are taken from the apical sides, followed by the addition of 60 μL of Transport Buffer. And then 80 μL of lucifer yellow samples are taken from the basolateral sides. The relative fluorescence unit (RFU) of lucifer yellow is measured at 425/528 nm (excitation/emission) with an Envision plate reader.\nThe apparent permeability coefficient Papp (cm/s) was calculated using the equation: […]\nWhere dCr/dt is the cumulative concentration of compound in the receiver chamber as a function of time (μM/s); Vr is the solution volume in the receiver chamber (0.075 mL on the apical side, 0.25 mL on the basolateral side); A is the surface area for the transport, i.e. 0.0804 cm^2 for the area of the monolayer; C0 is the initial concentration in the donor chamber (μM). The efflux ratio was calculated using the equation: […]\nWhere Vd is the volume in the donor chambers (0.075 mL on the apical side, 0.25 mL on the basolateral side); Cd and Cr are the final concentrations of transport compound in donor and receiver chambers, respectively."}
{"smiles": "Cc1ccc(-c2noc([C@H]3C[C@@H]3F)n2)cc1NC(=O)c1cnc2cc(COCC(C)(C)O)ccn12", "note": "[Compound I-71, N-[5-[5-[(1R,2S)-2-fluorocyclopropyl]-1,2,4-oxadiazol-3-yl]-2-methyl-phenyl]-7-[(2-hydroxy-2-methyl-propoxy)methyl]imidazo[1,2-a]pyridine-3-carboxamide]", "values": [{"measurement": "efflux ratio at 2.5 h, 2 μM", "setting": "MDCKII-MDR1", "result": 5.15}, {"measurement": "Papp A→B at 2.5 h, 2 μM", "setting": "MDCKII-MDR1, apical to basolateral", "result": 5.94, "unit": "×10⁻⁶ cm/s"}]}
